ChEMBL document CHEMBL3991601, “The target landscape of clinical kinase drugs” (Science, 2017)
Calls of active or inactive are those of the source.

target: T1, Succinate--CoA ligase [ADP-forming] subunit beta, mitochondrial (Homo sapiens, UniProt Q9P2R7); details: not given
T1 sequence (Q9P2R7 whole entry): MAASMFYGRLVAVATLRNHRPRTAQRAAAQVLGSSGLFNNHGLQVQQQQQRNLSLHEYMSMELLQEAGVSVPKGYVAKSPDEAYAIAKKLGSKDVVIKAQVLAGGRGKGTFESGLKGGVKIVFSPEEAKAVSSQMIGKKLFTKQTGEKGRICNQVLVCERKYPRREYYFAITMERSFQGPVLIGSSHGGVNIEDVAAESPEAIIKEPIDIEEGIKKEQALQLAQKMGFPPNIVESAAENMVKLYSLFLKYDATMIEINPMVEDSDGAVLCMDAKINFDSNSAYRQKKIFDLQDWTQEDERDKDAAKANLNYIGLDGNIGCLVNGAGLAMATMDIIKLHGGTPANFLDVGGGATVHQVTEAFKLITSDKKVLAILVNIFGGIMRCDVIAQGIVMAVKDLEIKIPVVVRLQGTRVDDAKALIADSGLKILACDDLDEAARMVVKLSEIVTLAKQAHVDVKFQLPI
Also: in the data inactive means no Kd found up to 30 µM.

Row | SMILES | Kd
1 | CN1CCC(COc2cnc(-c3cccc(Cn4nc(-c5cccc(C#N)c5)ccc4=O)c3)nc2)CC1 [TEPOTINIB] | > 30 µM (inactive)

target: Mitogen-activated protein kinase 8 (Homo sapiens, UniProt P45983); details: not given
Sequence (P45983 whole entry): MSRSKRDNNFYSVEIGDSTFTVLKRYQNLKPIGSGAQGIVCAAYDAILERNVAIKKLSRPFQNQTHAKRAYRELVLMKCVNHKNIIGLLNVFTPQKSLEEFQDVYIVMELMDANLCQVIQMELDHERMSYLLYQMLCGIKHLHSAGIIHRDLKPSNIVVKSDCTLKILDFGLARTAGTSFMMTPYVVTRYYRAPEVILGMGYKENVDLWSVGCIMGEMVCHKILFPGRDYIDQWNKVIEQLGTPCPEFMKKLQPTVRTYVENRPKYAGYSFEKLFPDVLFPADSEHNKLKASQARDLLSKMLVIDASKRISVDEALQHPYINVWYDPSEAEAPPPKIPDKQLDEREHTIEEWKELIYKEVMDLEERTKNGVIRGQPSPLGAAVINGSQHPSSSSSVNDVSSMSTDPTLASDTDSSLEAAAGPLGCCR

Row | SMILES | Kd
2 | COc1cc(CCc2cc(NC(=O)c3ccc(N4C[C@@H](C)N[C@@H](C)C4)cc3)n[nH]2)cc(OC)c1 [AZD-4547] | > 30 µM (inactive)

target: Tyrosine-protein kinase SYK (Homo sapiens, UniProt P43405); details: not given

Row | SMILES | Kd
3 | COc1cc(CCc2cc(NC(=O)c3ccc(N4C[C@@H](C)N[C@@H](C)C4)cc3)n[nH]2)cc(OC)c1 [AZD-4547] | > 30 µM (inactive)

target: T2, Peroxisomal acyl-coenzyme A oxidase 3 (Homo sapiens, UniProt O15254); details: not given
T2 sequence (O15254 whole entry): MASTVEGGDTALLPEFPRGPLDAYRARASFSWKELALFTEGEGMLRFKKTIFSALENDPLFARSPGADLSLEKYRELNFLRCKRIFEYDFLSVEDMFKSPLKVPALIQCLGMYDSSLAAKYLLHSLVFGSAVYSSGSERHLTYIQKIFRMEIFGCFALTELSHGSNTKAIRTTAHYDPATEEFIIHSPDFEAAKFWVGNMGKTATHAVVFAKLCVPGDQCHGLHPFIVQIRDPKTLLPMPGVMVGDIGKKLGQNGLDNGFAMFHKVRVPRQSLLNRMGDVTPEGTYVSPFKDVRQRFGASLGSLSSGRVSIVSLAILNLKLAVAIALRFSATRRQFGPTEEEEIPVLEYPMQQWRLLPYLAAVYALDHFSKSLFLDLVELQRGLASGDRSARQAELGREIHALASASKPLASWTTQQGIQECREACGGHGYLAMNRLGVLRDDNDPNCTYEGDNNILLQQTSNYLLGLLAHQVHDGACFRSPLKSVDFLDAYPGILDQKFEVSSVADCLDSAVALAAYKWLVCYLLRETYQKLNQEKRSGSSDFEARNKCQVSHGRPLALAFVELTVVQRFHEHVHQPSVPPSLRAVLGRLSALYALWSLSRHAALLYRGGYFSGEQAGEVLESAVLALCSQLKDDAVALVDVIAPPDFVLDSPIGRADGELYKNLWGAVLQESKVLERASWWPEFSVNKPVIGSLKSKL

Row | SMILES | Kd
4 | COc1cc(CCc2cc(NC(=O)c3ccc(N4C[C@@H](C)N[C@@H](C)C4)cc3)n[nH]2)cc(OC)c1 [AZD-4547] | > 30 µM (inactive)
5 | CN1CCN(c2ccc3nc(-c4c(N)c5c(F)cccc5[nH]c4=O)[nH]c3c2)CC1 [DOVITINIB] | > 30 µM (inactive)
6 | CN1CCC(COc2cnc(-c3cccc(Cn4nc(-c5cccc(C#N)c5)ccc4=O)c3)nc2)CC1 [TEPOTINIB] | > 30 µM (inactive)
7 | Nc1nc(N)c2nc(-c3cccc(O)c3)c(-c3cccc(O)c3)nc2n1 [TG100-115] | > 30 µM (inactive)

target: Serine/threonine-protein kinase MRCK beta (Homo sapiens, UniProt Q9Y5S2); details: not given
Sequence (Q9Y5S2 whole entry): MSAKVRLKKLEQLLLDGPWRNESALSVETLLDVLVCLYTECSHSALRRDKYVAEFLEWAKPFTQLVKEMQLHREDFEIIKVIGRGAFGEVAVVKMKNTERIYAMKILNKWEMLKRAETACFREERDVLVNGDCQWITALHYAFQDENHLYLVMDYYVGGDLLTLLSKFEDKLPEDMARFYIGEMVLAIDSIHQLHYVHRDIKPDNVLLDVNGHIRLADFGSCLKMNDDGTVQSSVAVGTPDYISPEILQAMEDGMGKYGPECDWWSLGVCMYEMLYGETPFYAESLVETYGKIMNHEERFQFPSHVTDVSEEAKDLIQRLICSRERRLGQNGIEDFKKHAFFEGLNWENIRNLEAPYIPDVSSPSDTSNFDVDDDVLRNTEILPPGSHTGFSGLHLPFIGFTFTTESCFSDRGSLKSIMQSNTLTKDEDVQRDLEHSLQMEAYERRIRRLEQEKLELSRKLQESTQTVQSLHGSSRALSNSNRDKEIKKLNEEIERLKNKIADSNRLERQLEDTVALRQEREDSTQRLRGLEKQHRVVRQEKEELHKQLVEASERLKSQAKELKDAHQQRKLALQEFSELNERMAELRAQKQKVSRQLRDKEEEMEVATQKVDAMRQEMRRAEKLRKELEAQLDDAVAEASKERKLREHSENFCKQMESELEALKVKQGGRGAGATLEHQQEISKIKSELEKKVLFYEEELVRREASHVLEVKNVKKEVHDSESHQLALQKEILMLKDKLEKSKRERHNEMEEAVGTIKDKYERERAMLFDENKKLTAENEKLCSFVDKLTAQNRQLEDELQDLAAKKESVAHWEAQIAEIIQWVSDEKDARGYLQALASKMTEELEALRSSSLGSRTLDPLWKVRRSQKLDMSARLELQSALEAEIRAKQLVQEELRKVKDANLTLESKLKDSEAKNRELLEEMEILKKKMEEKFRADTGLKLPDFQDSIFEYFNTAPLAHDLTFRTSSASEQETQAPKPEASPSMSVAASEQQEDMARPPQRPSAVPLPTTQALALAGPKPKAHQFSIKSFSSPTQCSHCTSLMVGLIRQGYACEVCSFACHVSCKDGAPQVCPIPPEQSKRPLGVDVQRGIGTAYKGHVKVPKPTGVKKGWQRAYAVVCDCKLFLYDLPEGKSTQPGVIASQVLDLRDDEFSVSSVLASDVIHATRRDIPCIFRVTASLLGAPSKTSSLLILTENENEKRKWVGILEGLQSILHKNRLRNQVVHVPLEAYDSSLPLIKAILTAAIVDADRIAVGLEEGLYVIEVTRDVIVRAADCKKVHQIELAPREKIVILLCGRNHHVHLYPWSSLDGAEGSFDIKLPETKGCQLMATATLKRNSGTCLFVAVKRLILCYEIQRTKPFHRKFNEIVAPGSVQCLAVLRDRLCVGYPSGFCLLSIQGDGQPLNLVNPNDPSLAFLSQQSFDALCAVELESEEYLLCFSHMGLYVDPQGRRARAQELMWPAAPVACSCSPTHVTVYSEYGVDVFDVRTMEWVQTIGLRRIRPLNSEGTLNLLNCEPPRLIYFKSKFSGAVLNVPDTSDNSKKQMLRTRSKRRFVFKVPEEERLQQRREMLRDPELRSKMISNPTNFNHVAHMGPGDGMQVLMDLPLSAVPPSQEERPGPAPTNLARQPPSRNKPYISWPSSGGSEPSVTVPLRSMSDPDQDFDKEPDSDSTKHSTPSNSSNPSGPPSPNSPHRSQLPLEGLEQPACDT

Row | SMILES | Kd
8 | COc1cc(CCc2cc(NC(=O)c3ccc(N4C[C@@H](C)N[C@@H](C)C4)cc3)n[nH]2)cc(OC)c1 [AZD-4547] | > 30 µM (inactive)
9 | CN1CCC(COc2cnc(-c3cccc(Cn4nc(-c5cccc(C#N)c5)ccc4=O)c3)nc2)CC1 [TEPOTINIB] | > 30 µM (inactive)

target: T3, Glycogen phosphorylase, liver form (Homo sapiens, UniProt P06737); format: subcellular, K-562, COLO 205, SK-N-BE(2) and MV-4-11, Cell lysate; details: read-out: Kd apparent
T3 sequence (P06737 whole entry): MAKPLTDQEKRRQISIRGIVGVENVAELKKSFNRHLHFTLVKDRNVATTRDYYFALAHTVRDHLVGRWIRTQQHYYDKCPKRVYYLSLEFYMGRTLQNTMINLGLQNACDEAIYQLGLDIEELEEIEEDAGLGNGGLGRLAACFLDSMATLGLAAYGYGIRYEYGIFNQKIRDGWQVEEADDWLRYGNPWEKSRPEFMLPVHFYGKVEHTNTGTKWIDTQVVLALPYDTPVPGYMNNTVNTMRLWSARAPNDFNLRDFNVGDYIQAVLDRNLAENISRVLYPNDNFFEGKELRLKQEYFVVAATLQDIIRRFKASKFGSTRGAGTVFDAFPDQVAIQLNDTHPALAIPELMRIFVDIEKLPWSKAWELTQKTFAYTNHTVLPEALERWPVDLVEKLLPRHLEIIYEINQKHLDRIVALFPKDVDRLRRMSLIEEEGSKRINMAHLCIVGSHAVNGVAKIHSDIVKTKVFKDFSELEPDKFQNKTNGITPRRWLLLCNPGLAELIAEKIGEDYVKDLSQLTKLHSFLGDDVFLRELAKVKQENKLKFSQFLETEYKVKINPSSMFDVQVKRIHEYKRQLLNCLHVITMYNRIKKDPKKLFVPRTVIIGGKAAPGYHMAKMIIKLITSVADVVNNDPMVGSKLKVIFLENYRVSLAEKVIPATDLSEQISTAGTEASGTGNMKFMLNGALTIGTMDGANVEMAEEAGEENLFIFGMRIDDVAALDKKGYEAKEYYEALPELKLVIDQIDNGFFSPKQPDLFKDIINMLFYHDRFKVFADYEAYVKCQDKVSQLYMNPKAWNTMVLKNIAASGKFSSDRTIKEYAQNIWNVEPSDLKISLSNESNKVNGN

Row | SMILES | Kd
10 | COc1cc(CCc2cc(NC(=O)c3ccc(N4C[C@@H](C)N[C@@H](C)C4)cc3)n[nH]2)cc(OC)c1 [AZD-4547] | > 30 µM (inactive)
11 | CN1CCN(c2ccc3nc(-c4c(N)c5c(F)cccc5[nH]c4=O)[nH]c3c2)CC1 [DOVITINIB] | > 30 µM (inactive)
12 | CN1CCC(COc2cnc(-c3cccc(Cn4nc(-c5cccc(C#N)c5)ccc4=O)c3)nc2)CC1 [TEPOTINIB] | > 30 µM (inactive)
13 | Nc1nc(N)c2nc(-c3cccc(O)c3)c(-c3cccc(O)c3)nc2n1 [TG100-115] | > 30 µM (inactive)

target: T4, Delta(24)-sterol reductase (Homo sapiens, UniProt Q15392); details: not given
T4 sequence (Q15392 whole entry): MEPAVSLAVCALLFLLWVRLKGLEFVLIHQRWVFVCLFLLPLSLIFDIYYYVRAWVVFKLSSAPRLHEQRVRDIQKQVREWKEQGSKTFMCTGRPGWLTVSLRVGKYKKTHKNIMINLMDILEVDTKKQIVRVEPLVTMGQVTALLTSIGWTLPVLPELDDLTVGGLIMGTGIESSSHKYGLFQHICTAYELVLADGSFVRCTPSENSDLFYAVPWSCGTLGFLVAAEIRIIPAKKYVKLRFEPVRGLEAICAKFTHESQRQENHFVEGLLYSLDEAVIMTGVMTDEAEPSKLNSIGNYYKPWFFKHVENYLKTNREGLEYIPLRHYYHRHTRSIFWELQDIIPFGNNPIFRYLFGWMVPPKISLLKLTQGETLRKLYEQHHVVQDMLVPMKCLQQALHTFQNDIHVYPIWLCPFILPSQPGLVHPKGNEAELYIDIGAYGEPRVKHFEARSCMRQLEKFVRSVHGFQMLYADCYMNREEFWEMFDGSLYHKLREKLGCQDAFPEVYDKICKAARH

Row | SMILES | Kd
14 | COc1cc(CCc2cc(NC(=O)c3ccc(N4C[C@@H](C)N[C@@H](C)C4)cc3)n[nH]2)cc(OC)c1 [AZD-4547] | > 30 µM (inactive)
15 | CN1CCN(c2ccc3nc(-c4c(N)c5c(F)cccc5[nH]c4=O)[nH]c3c2)CC1 [DOVITINIB] | > 30 µM (inactive)
16 | CN1CCC(COc2cnc(-c3cccc(Cn4nc(-c5cccc(C#N)c5)ccc4=O)c3)nc2)CC1 [TEPOTINIB] | > 30 µM (inactive)
17 | Nc1nc(N)c2nc(-c3cccc(O)c3)c(-c3cccc(O)c3)nc2n1 [TG100-115] | > 30 µM (inactive)

target: Cyclin-dependent kinase 4 (Homo sapiens, UniProt P11802); details: not given
Sequence (P11802 whole entry): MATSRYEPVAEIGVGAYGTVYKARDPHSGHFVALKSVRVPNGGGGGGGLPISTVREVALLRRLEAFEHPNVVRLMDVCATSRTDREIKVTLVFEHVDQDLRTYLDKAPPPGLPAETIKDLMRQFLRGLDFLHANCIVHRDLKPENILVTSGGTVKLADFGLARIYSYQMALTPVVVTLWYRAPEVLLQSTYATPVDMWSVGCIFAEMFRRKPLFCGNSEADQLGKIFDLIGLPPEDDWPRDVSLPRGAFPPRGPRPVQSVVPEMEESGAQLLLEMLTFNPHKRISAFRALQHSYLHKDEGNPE

Row | SMILES | Kd
18 | COc1cc(CCc2cc(NC(=O)c3ccc(N4C[C@@H](C)N[C@@H](C)C4)cc3)n[nH]2)cc(OC)c1 [AZD-4547] | > 30 µM (inactive)
19 | CN1CCC(COc2cnc(-c3cccc(Cn4nc(-c5cccc(C#N)c5)ccc4=O)c3)nc2)CC1 [TEPOTINIB] | > 30 µM (inactive)

target: Activin receptor type-2B (Homo sapiens, UniProt Q13705); details: not given
Sequence (Q13705 whole entry): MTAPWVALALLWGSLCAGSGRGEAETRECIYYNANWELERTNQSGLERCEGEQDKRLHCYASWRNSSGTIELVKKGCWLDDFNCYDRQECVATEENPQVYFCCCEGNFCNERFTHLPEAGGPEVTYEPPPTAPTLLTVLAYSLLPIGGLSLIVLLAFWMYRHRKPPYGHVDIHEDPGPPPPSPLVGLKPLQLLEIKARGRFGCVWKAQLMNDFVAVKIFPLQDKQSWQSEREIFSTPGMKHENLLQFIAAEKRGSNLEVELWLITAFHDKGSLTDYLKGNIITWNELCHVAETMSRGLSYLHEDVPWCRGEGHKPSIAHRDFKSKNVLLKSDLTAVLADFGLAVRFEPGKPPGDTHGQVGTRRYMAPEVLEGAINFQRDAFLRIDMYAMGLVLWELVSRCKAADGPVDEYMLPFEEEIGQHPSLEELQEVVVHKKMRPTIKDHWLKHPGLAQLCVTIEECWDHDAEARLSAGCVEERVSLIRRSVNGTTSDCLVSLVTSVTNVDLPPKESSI

Row | SMILES | Kd
20 | COc1cc(CCc2cc(NC(=O)c3ccc(N4C[C@@H](C)N[C@@H](C)C4)cc3)n[nH]2)cc(OC)c1 [AZD-4547] | > 30 µM (inactive)
21 | CN1CCC(COc2cnc(-c3cccc(Cn4nc(-c5cccc(C#N)c5)ccc4=O)c3)nc2)CC1 [TEPOTINIB] | > 30 µM (inactive)

target: cAMP-dependent protein kinase catalytic subunit beta (Homo sapiens, UniProt P22694); details: not given

Row | SMILES | Kd
22 | COc1cc(CCc2cc(NC(=O)c3ccc(N4C[C@@H](C)N[C@@H](C)C4)cc3)n[nH]2)cc(OC)c1 [AZD-4547] | > 30 µM (inactive)
23 | CN1CCC(COc2cnc(-c3cccc(Cn4nc(-c5cccc(C#N)c5)ccc4=O)c3)nc2)CC1 [TEPOTINIB] | > 30 µM (inactive)

target: Tyrosine-protein kinase Fyn (Homo sapiens, UniProt P06241); details: not given
Sequence (P06241 whole entry): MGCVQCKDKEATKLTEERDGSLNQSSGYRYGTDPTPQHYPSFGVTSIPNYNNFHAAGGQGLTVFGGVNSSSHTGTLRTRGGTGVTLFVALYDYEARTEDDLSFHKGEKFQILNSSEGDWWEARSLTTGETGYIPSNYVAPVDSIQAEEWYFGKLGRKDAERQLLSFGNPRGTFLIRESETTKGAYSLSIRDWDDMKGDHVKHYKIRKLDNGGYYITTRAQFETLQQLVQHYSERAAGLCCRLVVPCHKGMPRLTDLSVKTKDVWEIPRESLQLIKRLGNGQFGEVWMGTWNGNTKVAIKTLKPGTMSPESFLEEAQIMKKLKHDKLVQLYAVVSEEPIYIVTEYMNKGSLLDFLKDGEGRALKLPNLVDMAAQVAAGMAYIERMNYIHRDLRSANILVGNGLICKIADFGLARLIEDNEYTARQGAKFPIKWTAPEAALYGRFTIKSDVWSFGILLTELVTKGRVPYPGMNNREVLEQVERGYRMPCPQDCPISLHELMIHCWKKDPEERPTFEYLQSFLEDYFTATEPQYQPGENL

Row | SMILES | Kd
24 | COc1cc(CCc2cc(NC(=O)c3ccc(N4C[C@@H](C)N[C@@H](C)C4)cc3)n[nH]2)cc(OC)c1 [AZD-4547] | > 30 µM (inactive)
25 | CN1CCC(COc2cnc(-c3cccc(Cn4nc(-c5cccc(C#N)c5)ccc4=O)c3)nc2)CC1 [TEPOTINIB] | > 30 µM (inactive)
